For two compounds, inhibition results are on record in patent US20070207093A1, “Hydrazone derivatives and uses thereof” (Linquagen Corp., priority 2005, published 2007).

What all share (type): cell-based
The subject of test [1] is membrane potential response (non-specific ion channel block). In words: KCl counterscreen (membrane potential dye, 10 mM KCl stimulation). The note with it: Homo sapiens; 10 μM compound; same HEK293 TRPM5 cells; 10 mM KCl instead of ATP; read-out: KC1 Counterscreen (percent inhibition). The protocol:
(§1) Two counterscreen assays were run on separate cell plates utilizing the same cells as described above. In the calcium counterscreen, the cells were loaded with a calcium sensitive dye (Calcium3 Dye, Part no. 8090, Molecular Devices Corp.) and stimulated by ATP to check for compounds that block the GPCR-mediated calcium activation step. In the KCl counterscreen, cells are stimulated with 10 mM KCl instead of ATP to check for compounds that inhibit the membrane potential response by virtue of being non-specific ion channel blockers.
(§2) Unless otherwise indicated, the data in the table below were determined using the three assays described above, providing percent inhibition data at 10 μM.

The subject of test [2] is GPCR-mediated calcium activation step. As to the kind of experiment: Calcium counterscreen (calcium sensitive dye, ATP stimulation). Conditions: Homo sapiens, 10 μM compound, same HEK293 TRPM5 cells, Calcium3 dye, read-out: Calcium Counterscreen (percent inhibition). The procedure:
as §1, §2
(Counterscreens check selectivity or assay interference.)

The target of test [3] is T1, human TRPM5 ion channel (Homo sapiens, UniProt Q9NZQ8).
T1 construct: expressed in transfected cells
T1 sequence (Q9NZQ8 1-1165): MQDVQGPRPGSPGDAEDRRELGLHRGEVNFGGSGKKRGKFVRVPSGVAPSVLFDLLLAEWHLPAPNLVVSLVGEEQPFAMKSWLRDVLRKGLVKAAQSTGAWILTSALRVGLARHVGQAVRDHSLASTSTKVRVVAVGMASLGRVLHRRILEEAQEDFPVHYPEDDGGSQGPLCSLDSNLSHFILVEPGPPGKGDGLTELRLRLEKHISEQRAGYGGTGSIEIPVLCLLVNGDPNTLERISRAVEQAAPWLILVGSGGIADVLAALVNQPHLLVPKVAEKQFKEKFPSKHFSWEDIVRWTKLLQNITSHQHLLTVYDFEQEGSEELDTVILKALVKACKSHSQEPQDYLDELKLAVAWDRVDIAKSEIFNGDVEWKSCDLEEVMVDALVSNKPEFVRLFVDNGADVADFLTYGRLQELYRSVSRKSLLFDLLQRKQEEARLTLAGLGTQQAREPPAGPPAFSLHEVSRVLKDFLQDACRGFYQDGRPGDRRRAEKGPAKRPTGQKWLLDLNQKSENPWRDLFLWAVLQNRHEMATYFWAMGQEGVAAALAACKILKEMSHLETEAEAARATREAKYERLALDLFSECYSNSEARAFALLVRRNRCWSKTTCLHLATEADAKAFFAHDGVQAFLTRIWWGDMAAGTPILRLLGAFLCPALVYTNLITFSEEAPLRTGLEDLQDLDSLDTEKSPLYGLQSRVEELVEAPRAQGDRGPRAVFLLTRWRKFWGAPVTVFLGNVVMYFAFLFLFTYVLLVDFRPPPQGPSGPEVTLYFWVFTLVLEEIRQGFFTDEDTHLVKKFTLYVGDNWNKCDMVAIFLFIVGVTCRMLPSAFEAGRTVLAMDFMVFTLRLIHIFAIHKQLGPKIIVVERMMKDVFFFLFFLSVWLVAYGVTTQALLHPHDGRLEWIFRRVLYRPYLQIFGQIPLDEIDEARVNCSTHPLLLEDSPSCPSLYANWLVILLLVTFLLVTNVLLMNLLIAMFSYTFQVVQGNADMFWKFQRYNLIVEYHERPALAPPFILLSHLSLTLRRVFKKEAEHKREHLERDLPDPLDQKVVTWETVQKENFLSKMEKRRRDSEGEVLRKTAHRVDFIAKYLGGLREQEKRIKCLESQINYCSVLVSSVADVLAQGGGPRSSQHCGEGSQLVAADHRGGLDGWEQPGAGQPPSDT
In words: TRPM5 FLIPR membrane potential screening assay (ATP stimulation). The note with it: 10 μM compound; HEK293 cells stably expressing human TRPM5; 3 μM ATP stimulation; versus negative control wells; read-out: TRPM5 Activity (percent inhibition). The procedure: The activity of human TRPM5 ion channel was measured in live cells on a fluorescent imaging plate reader (FLIPR). The basis of the assay (shown in FIG. 1) is the calcium-dependent activation of the ion channel which occurs via by activation of a G-protein coupled receptor (GPCR). GPCR activation by an appropriate agonist causes a transient increase in […] Ca^2+ ion concentration which in turn causes the ion channel to open, letting in Na^+ ions. This influx causes a change in the membrane potential of the cell which can be monitored as a change in the fluorescent signal from voltage-dependent (membrane potential) fluorescent dyes.
For the screening assay, the human TRPM5 gene was cloned, put into HEK293 cells, and a stable, high expression clone was used for screening. Cells were grown in standard media at 37° C. The day before screening, the cells were removed from flasks and added to 384 well clear bottom plates (8K cells in 20 μL/well). On the assay day, 20 μL of membrane potential dye (Part No. R8123, Molecular Devices Corp.) was added to the cells and dye was allowed to be taken up, i.e., load, into the cells for 1 hr at 37° C. […] The assay was started by addition of 10 μL of solution from the compound plate into the cell plate. During this process, continuous fluorescent recordings were made simultaneously for all wells. After addition of the compound solution, the tips were automatically washed and a stimulation solution of 3 μM ATP (an agonist for an endogenous purinurgic GPCR, was added to all wells of the cell plate. The height of the response was calculated and percent inhibition values, versus negative control wells, was calculated for the test samples.
as §2

Test [4] deals with T2, human TRPM5 (Homo sapiens, UniProt Q9NZQ8).
T2 construct: expressed in transfected cells; host or cells: HEK cells, stably transfected
T2 sequence (Q9NZQ8 1-1165): T1 sequence (Q9NZQ8 1-1165)
In words: Whole-cell electrophysiology of TRPM5 current. The note with it: HEK293; HEK cells stably transfected with human TRPM5, pre-treated with 10 μM; current activated by intracellular calcium dialysis (170 nM free calcium); FIG. 2B. The protocol: Standard whole-cell recordings were obtained from HEK cells stably transfected with human TRPM5. Internal solution contained 135 mM CsGlutamate, 10 mM HEPES, 2 mM MgATP, 5 mM CaCl2 and 10 mM EGTA. External solution was HBSS (Gibco) buffered with 20 mM HEPES to pH 7.2. Currents were recorded with Multiclamp 700B amplifier using PClamp software; filered at 1 kHz, sampled at 5 kHz. Holding potential was −80 mV. TRPM5 current was activated by intracellular calcium dialysis (170 nM free calcium) and sampled with 200 ms ramps from −80 to 80 mV at 1 Hz. Current amplitudes were measured at −80 and 80 mV potted versus time.
In general terms: A change in cytosolic calcium serves as a functional read-out for many receptors and channels.

A word on the inhibition: it is the drop in the measured response relative to a control, in per cent. For the compound `COc1ccc(/C=N/NC(=O)Cc2cccc3ccccc23)cc1OC` [Example 3, (E)-N′-(3,4-Dimethoxybenzylidene)-2-(naphthalene-1-yl)acetohydrazide], the inhibition at 10 µM in test [1] is 6%; in test [2] it was 2%; in test [3] it was 97%; in test [4] it was over 90%.

Take `CCN(CC)c1ccc(/C=N/Nc2nc3ccccc3[nH]2)c(O)c1` [Example 22, (E)-2-((2-(1H-Benzo[d]imidazol-2-yl)hydrazono)methyl)-5-(diethylamino)phenol]: the inhibition at 10 µM was 32% in test [1], -23% in test [2] and 58% in test [3].
